Laboratory results taken from paper PMC3072440 (Chemical research in toxicology, 2010).
Where two headings read alike, the source gives them in different places.

What was measured:
human P450 3A4 [1] = target: T1, human P450 3A4 (Homo sapiens, UniProt P08684); experiment: Spectral binding titration with purified P450 3A4; settings: decreases in α and β bands monitored; up to 100 µM
human P450 2C9 = human P450 2C9 (Homo sapiens, UniProt P11712); experiment: Inhibition of P450 2C9-dependent flurbiprofen 4’-hydroxylation
CYP3A4 (P450 3A4) = CYP3A4 (P450 3A4) (Homo sapiens, UniProt P08684); experiment: Inhibition of P450 3A4-dependent midazolam 4-hydroxylation; settings: human, pH 7.4, probe midazolam (0.1 mM), 4-hydroxylation
human P450 1A1 = target: T2, human P450 1A1 (Homo sapiens, UniProt P04798); experiment: Inhibition of P450 1A1-dependent EROD activity; type: biochemical
T2 sequence (P04798 1-512): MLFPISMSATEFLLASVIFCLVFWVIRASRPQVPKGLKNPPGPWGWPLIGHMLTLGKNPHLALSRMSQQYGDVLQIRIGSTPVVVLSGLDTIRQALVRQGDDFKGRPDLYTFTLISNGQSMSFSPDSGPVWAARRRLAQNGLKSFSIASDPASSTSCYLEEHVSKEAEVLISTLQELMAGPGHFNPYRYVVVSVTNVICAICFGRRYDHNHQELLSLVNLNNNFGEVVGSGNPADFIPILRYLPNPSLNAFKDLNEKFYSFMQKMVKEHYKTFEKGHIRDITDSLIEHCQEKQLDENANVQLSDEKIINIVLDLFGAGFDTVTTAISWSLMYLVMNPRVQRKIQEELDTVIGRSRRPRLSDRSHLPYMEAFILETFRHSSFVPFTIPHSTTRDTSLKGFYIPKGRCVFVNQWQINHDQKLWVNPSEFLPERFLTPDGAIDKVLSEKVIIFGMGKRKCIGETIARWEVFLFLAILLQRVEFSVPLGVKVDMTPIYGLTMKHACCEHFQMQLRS

human P450 3A4 [2] = target: T1, human P450 3A4
human P450 3A4 [3] = target: T1, human P450 3A4; remark: listed apart in the source
human P450 3A4 [4] = target: T1, human P450 3A4; experiment: Effect on P450 3A4-catalyzed midazolam 1’-hydroxylation

T1 sequence (P08684 whole entry): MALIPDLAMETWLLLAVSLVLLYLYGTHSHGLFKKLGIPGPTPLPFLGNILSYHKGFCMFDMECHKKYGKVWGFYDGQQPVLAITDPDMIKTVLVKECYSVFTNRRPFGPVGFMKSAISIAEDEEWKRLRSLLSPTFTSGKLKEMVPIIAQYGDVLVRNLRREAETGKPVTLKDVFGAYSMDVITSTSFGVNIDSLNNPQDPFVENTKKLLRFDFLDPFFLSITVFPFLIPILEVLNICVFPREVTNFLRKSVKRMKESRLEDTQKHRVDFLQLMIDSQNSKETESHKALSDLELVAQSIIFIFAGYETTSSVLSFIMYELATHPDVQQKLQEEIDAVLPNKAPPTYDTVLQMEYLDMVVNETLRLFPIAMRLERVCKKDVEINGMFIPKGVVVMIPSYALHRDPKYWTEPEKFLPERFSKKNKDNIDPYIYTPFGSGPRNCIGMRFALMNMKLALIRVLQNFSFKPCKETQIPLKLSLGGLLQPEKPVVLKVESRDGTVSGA
Sequence of CYP3A4 (P450 3A4) (P08684 whole entry): as above
Sequence of human P450 2C9 (P11712 whole entry): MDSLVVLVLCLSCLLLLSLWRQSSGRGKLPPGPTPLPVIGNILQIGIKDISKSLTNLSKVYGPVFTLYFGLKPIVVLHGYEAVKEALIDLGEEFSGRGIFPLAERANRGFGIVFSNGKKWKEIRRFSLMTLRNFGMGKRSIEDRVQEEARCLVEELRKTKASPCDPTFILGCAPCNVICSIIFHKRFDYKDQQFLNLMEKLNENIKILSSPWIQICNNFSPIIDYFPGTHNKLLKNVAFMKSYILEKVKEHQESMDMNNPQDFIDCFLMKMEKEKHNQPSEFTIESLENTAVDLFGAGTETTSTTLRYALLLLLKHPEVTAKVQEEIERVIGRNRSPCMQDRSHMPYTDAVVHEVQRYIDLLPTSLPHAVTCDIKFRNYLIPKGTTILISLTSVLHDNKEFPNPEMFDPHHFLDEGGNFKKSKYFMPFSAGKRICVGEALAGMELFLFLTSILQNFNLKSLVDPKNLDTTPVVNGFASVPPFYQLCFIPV

| Compound | spectral change / Type I binding spectra with P450 3A4, in words (human P450 3A4 [1]) | inhibition of P450 2C9 flurbiprofen 4’-hydroxylation, in words (human P450 2C9) | IC50 (CYP3A4 (P450 3A4)) | IC50 (human P450 1A1) | effect on formation of 1’-hydroxymidazolam by P450 3A4, in words (human P450 3A4 [2]) | inhibition of P450 3A4 midazolam 4-hydroxylation, in words (human P450 3A4 [3]) | effect on formation of 1’-hydroxymidazolam by P450 3A4, in words (human P450 3A4 [4]) |
| --- | --- | --- | --- | --- | --- | --- | --- |
| COc1cccc(-c2cc(=O)c3c(O)cc(O)cc3o2)c1 [3’M57DHF, 3’-methoxy-5,7-dihydroxyflavone] | induced spectral changes | strong inhibitors | 16 µM | 5.8 µM |  |  |  |
| O=c1cc(-c2ccc(O)cc2)oc2cc(O)cc(O)c12 [4’57THF, 4’5,7-trihydroxyflavone] |  |  |  |  | slightly activated | significantly inhibited |  |
| O=C1CC(c2ccccc2)Oc2ccccc21 (centres unmarked) [flavanone] |  |  |  |  |  | inhibited the formation of 4-hydroxymidazolam | enhanced the formation of 1’-hydroxymidazolam |
